The source of these data is BindingDB's records for doi:10.1016/0960-894X(96)00068-6 (1996).

pIC50: −log10 of the molar value. A value given as a limit tells only on which side of the number the result lay.

Assay [1] in a line: Inhibition of jack bean alpha-mannosidase.
Assay [2] is described as follows: Compound was evaluated for inhibition of beta-glucosidase from almonds(sigma G 4511).
Assay [3] in a line: Compound was evaluated for inhibition of alpha-fucosidase from bovine kidney(sigma F 5884).
Assay [4] in a line: Compound was evaluated for inhibition of beta-galactosidase from aspergillus oryzae (sigma G 7256).
Assay [5] is described as follows: Compound was evaluated for inhibition of alpha-galactosidase from green coffee beans (sigma G 8507).

For the molecule `CCCCN1CC(C)C(O)C(O)C1` (stereo not given) [1-Butyl-5-methyl-piperidine-3,4-diol], the pIC50 (usually −log10 of the IC50, conventionally taken in molar units) in assay [1] is less than 3.00; in assay [2], 4.10; in assay [3], 3.57; in assay [4], less than 3.00; in assay [5] it was less than 3.00.
